Assay results published in ChEMBL document CHEMBL1201862, “PubChem BioAssay data set” (2004).
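Dose response: 5 concentrations. Exposure: 48 h. Format: 96-well plates. Endpoint: linear interpolation; highest concentration if not reached. Here, GI50 denotes the concentration required for 50% inhibition of growth.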 Active and inactive are the calls of the source. No stated cut-off is given here; in the data, active = GI50 up to about 1.1 µM and inactive = higher.

What was measured:
Experiment in all cases: DTP human tumour cell line panel, 48 h
OVCAR-3 = system: OVCAR-3
SF-295 = system: SF-295
MDA-MB-435 = system: MDA-MB-435
MDA-MB-231 = system: MDA-MB-231
MOLT-4 = system: MOLT-4
SK-MEL-28 = system: SK-MEL-28
K562 = system: K562
HCT-15 = system: HCT-15
OVCAR-4 = system: OVCAR-4
CAKI-1 = system: CAKI-1
HCT-116 = system: HCT-116
SW-620 = system: SW-620
A498 = system: A498
COLO 205 = system: COLO 205
SK-OV-3 = system: SK-OV-3
UACC-257 = system: UACC-257
NCI-H522 = system: NCI-H522
NCI-H460 = system: NCI-H460
SF-539 = system: SF-539
HCC 2998 = system: HCC 2998

| Structure (SMILES) | GI50 (OVCAR-3) | GI50 (SF-295) | GI50 (MDA-MB-435) | GI50 (MDA-MB-231) | GI50 (MOLT-4) | GI50 (SK-MEL-28) | GI50 (K562) | GI50 (HCT-15) | GI50 (OVCAR-4) | GI50 (CAKI-1) | GI50 (HCT-116) | GI50 (SW-620) | GI50 (A498) | GI50 (COLO 205) | GI50 (SK-OV-3) | GI50 (UACC-257) | GI50 (NCI-H522) | GI50 (NCI-H460) | GI50 (SF-539) | GI50 (HCC 2998) |
| --- | --- | --- | --- | --- | --- | --- | --- | --- | --- | --- | --- | --- | --- | --- | --- | --- | --- | --- | --- | --- |
| CCC1c2[nH]c3ccccc3c2C[C@H]2C(=O)NC(CCC(=O)OC(C)(C)C)C(=O)N12 (some centres undefined) | 22.4 µM (inactive) | 42.3 µM (inactive) | 49.5 µM (inactive) | 66.4 µM (inactive) | 35.3 µM (inactive) | 73.5 µM (inactive) | 53.6 µM (inactive) | 52 µM | 41.4 µM (inactive) | > 100 µM (inactive) | 43.3 µM (inactive) | 67.3 µM (inactive) | 89.7 µM (inactive) | 32.4 µM (inactive) | 63.5 µM (inactive) | 40.2 µM (inactive) | 29.6 µM (inactive) | – | – | – |
| CC(C)(NC(=O)OCc1ccccc1)C(=O)OC(=O)C(C)(C)NC(=O)OCc1ccccc1 | > 100 µM (inactive) | > 100 µM (inactive) | > 100 µM (inactive) | > 100 µM (inactive) | > 100 µM (inactive) | > 100 µM (inactive) | > 100 µM (inactive) | > 100 µM | > 100 µM (inactive) | > 100 µM (inactive) | > 100 µM (inactive) | > 100 µM (inactive) | > 100 µM (inactive) | > 100 µM (inactive) | 54.2 µM (inactive) | – | > 100 µM (inactive) | > 100 µM (inactive) | > 100 µM (inactive) | – |
| O=C1CCC2CCC1C2 (centres undefined) | > 100 µM (inactive) | > 100 µM (inactive) | > 100 µM (inactive) | > 100 µM (inactive) | > 100 µM (inactive) | > 100 µM (inactive) | > 100 µM (inactive) | > 100 µM | > 100 µM (inactive) | > 100 µM (inactive) | > 100 µM (inactive) | – | > 100 µM (inactive) | > 100 µM (inactive) | > 100 µM (inactive) | > 100 µM (inactive) | – | > 100 µM (inactive) | > 100 µM (inactive) | > 100 µM (inactive) |
| CC(=O)OCc1cc(OC(C)=O)c2cc3c(OC(C)=O)cccc3c(OC(C)=O)c2c1 | 13.7 µM (inactive) | 13.6 µM (inactive) | 17.7 µM (inactive) | 17.1 µM (inactive) | 15.2 µM (inactive) | 23 µM (inactive) | 19.2 µM (inactive) | 5.61 µM | 17.8 µM (inactive) | – | 19.7 µM (inactive) | 12.2 µM (inactive) | 11.2 µM (inactive) | 6.67 µM (inactive) | 18.5 µM (inactive) | 22 µM (inactive) | – | 5.65 µM (inactive) | – | 14.5 µM (inactive) |
| Cc1cc(=O)nc(Sc2ccc([N+](=O)[O-])cc2[N+](=O)[O-])[nH]1 | 17 µM (inactive) | > 50.5 µM (inactive) | 25.6 µM (inactive) | 23.2 µM (inactive) | 7.59 µM (inactive) | 20 µM (inactive) | 3.4 µM (inactive) | 14.2 µM | > 39.4 µM (inactive) | 15.1 µM (inactive) | 10.2 µM (inactive) | 3.72 µM (inactive) | > 100 µM (inactive) | 4.65 µM (inactive) | 71.8 µM (inactive) | 21.2 µM (inactive) | 7.23 µM (inactive) | 23 µM (inactive) | – | 16.3 µM (inactive) |
| CCOC(=O)CSc1nc2ccccc2c(=O)n1N | > 100 µM (inactive) | > 100 µM (inactive) | > 100 µM (inactive) | > 100 µM (inactive) | > 100 µM (inactive) | > 100 µM (inactive) | > 100 µM (inactive) | > 100 µM | > 100 µM (inactive) | > 100 µM (inactive) | > 100 µM (inactive) | > 100 µM (inactive) | > 100 µM (inactive) | > 100 µM (inactive) | – | > 100 µM (inactive) | > 100 µM (inactive) | 83.4 µM (inactive) | > 100 µM (inactive) | 37.6 µM (inactive) |
| O=C(/C=C/c1cccs1)c1ccc(Cl)s1 | – | 37.8 µM (inactive) | 21.9 µM (inactive) | 40.3 µM (inactive) | 23.8 µM (inactive) | 29.2 µM (inactive) | 31.3 µM (inactive) | 18.2 µM | 48.5 µM (inactive) | 83.4 µM (inactive) | 18.2 µM (inactive) | 23.3 µM (inactive) | 55.7 µM (inactive) | > 10 µM (inactive) | 67 µM (inactive) | 39.8 µM (inactive) | – | 72.8 µM (inactive) | 28.6 µM (inactive) | 18.7 µM (inactive) |
| CCCCCCCCCC/C=C/CC(=O)SCCNC(=O)CCNC(=O)[C@@H](O)C(C)(C)COP(=O)(O)OP(=O)(O)OCC1OC(n2cnc3c(N)ncnc32)C(O)C1OP(=O)(O)O (some centres undefined) | > 10 µM (inactive) | > 10 µM (inactive) | > 10 µM (inactive) | > 10 µM (inactive) | > 10 µM (inactive) | > 10 µM (inactive) | > 10 µM (inactive) | > 10 µM | > 10 µM (inactive) | > 10 µM (inactive) | > 10 µM (inactive) | > 10 µM (inactive) | > 10 µM (inactive) | > 10 µM (inactive) | > 10 µM (inactive) | > 10 µM (inactive) | – | > 10 µM (inactive) | > 10 µM (inactive) | > 10 µM (inactive) |
| O=C(COc1ccc(OCC(=O)N/N=C/c2ccc(-c3ccc(Cl)cc3Cl)o2)c(Cl)c1)N/N=C/c1ccc(-c2ccc(Cl)cc2Cl)o1 | 49.5 µM (inactive) | 32.2 µM (inactive) | 24.1 µM (inactive) | 35 µM (inactive) | 0.0298 µM (active) | > 100 µM (inactive) | 15.3 µM (inactive) | > 100 µM | > 100 µM (inactive) | > 100 µM (inactive) | > 100 µM (inactive) | > 100 µM (inactive) | 49.3 µM (inactive) | 0.942 µM (active) | – | > 100 µM (inactive) | 81.8 µM (inactive) | > 100 µM (inactive) | – | 29.8 µM (inactive) |
| O=c1[nH]c(=O)n(C2CC(O)C(CO)O2)cc1/N=N/NCCCc1ccccc1 (centres undefined) | > 100 µM (inactive) | > 100 µM (inactive) | > 100 µM (inactive) | > 100 µM (inactive) | > 100 µM (inactive) | > 100 µM (inactive) | – | > 100 µM | > 100 µM (inactive) | > 100 µM (inactive) | > 100 µM (inactive) | – | > 100 µM (inactive) | > 100 µM (inactive) | > 100 µM (inactive) | > 100 µM (inactive) | – | > 100 µM (inactive) | > 100 µM (inactive) | > 100 µM (inactive) |
| N#CCCN(CCC#N)c1ccc(/C=C2\N=C(c3ccccc3)N(c3ccc(Cl)cc3)C2=O)cc1 | > 100 µM (inactive) | 30.3 µM (inactive) | 45.5 µM (inactive) | > 100 µM (inactive) | > 100 µM (inactive) | > 100 µM (inactive) | 48 µM (inactive) | > 100 µM | > 100 µM (inactive) | – | > 100 µM (inactive) | > 100 µM (inactive) | > 100 µM (inactive) | > 100 µM (inactive) | > 100 µM (inactive) | > 100 µM (inactive) | > 100 µM (inactive) | > 100 µM (inactive) | > 100 µM (inactive) | – |
| O=C1c2ccccc2C(=O)N1C(=S)c1ccccc1 | > 100 µM (inactive) | > 100 µM (inactive) | > 100 µM (inactive) | > 100 µM (inactive) | > 100 µM (inactive) | > 100 µM (inactive) | > 100 µM (inactive) | > 100 µM | > 100 µM (inactive) | > 100 µM (inactive) | > 100 µM (inactive) | > 100 µM (inactive) | – | > 100 µM (inactive) | > 100 µM (inactive) | > 100 µM (inactive) | > 100 µM (inactive) | > 100 µM (inactive) | > 100 µM (inactive) | > 100 µM (inactive) |
| C=CCN1CCC(c2cc(C(=O)OCC)[nH]c2-c2cc(C)no2)C1=O (centres undefined) | > 100 µM (inactive) | > 100 µM (inactive) | > 100 µM (inactive) | > 100 µM (inactive) | 79.6 µM (inactive) | > 100 µM (inactive) | > 100 µM (inactive) | > 100 µM | > 100 µM (inactive) | > 100 µM (inactive) | > 100 µM (inactive) | > 100 µM (inactive) | > 100 µM (inactive) | > 100 µM (inactive) | > 100 µM (inactive) | > 100 µM (inactive) | – | > 100 µM (inactive) | > 100 µM (inactive) | > 100 µM (inactive) |
| CC1(C)CC2=NC(SSC3=C(C#N)C(c4ccc(Br)cc4)C4=C(O)CC(C)(C)CC4=N3)=C(C#N)C(c3ccc(Br)cc3)C2=C(O)C1 (centres undefined) | > 100 µM (inactive) | > 100 µM (inactive) | > 100 µM (inactive) | > 100 µM (inactive) | 59 µM (inactive) | > 100 µM (inactive) | 75 µM (inactive) | > 100 µM | > 100 µM (inactive) | > 100 µM (inactive) | > 100 µM (inactive) | > 100 µM (inactive) | > 100 µM (inactive) | > 100 µM (inactive) | > 100 µM (inactive) | > 100 µM (inactive) | 57.7 µM (inactive) | > 100 µM (inactive) | > 100 µM (inactive) | – |
| CN1CCCCC1CCN1c2ccccc2Sc2ccc([S+](C)[O-])cc21 (centres undefined) [MESORIDAZINE] | > 100 µM (inactive) | > 100 µM (inactive) | > 100 µM (inactive) | > 100 µM (inactive) | > 100 µM (inactive) | > 100 µM (inactive) | > 100 µM (inactive) | > 100 µM | > 100 µM (inactive) | > 100 µM (inactive) | > 100 µM (inactive) | > 100 µM (inactive) | > 100 µM (inactive) | > 100 µM (inactive) | > 100 µM (inactive) | > 100 µM (inactive) | > 100 µM (inactive) | > 100 µM (inactive) | > 100 µM (inactive) | – |
